Data on one molecule can be found in patent US6613745B1, “Therapeutic molecules derived from snake venom” (National University of Singapore, priority 1997, dated 2003).

Entries after “also recorded” stand apart in the source; their conditions may differ. Peptide text beside a SMILES is read from it.

This data set concerns chick biventer muscle. As to the kind of experiment: Chick biventral experiment: contractile (twitch) responses evoked by electrical field stimulation. Also on record: species or system Gallus domesticus.

As to `C[C@@H](O)[C@H](NC(=O)[C@@H]1CCCN1C(=O)[C@H](Cc1ccccc1)NC(=O)[C@@H]1CCCN1C(=O)[C@@H](N)CC(N)=O)C(=O)N[C@@H](Cc1c[nH]c2ccccc12)C(=O)N[C@@H](CCCNC(=N)N)C(=O)N[C@@H](CCCCN)C(=O)N[C@@H](CCCNC(=N)N)C(=O)N1CCC[C@H]1C(=O)NCC(=O)O` [synthesized peptide, Asn-Pro-Phe-Pro-Thr-Trp-Arg-Lys-Arg-Pro-Gly] (H-NPFPTWRKRPG-OH), the “contractile (twitch) response of chick biventer evoked by electrical field stimulation” value (10 μg peptide added, EFS 25 V, 5 Hz×10s, 1 ms pulse width, every 100s, FIG. 1, listed as analgesic peptide) is listed as “no change; also recorded: no effect”. Moreover, the “neurotoxic effect on the neuromuscular junction” value (10 μg peptide, concluded from FIG. 1) is listed as “no neurotoxic effect”.
